Measured values as given in ChEMBL document CHEMBL1150930, “Metabolism of rosmarinic acid in rats” (J Nat Prod, 1998).

Columns and labels:
Design in all cases: dose 200 mg/kg, route oral
[1] = system: Rattus norvegicus; assay: Metabolic stability in Sprague-Dawley rat assessed as urinary excretion of trans-m-coumaric acid level at 200 mg/kg, po after 0 to 12 hrs by HPLC; assay type: ADME, organism-based, Urine; conditions: in vivo
[2] = system: Rattus norvegicus; assay: Metabolic stability in Sprague-Dawley rat assessed as urinary excretion of m-hydroxyphenyl-propionic acid level at 200 mg/kg, po after 0 to 48 hrs by HPLC; assay type: ADME, organism-based, Urine; conditions: in vivo
[3] = system: Rattus norvegicus; assay: Metabolic stability in Sprague-Dawley rat assessed as urinary excretion of total metabolites at 200 mg/kg, po after 0 to 36 hrs by HPLC; assay type: ADME, organism-based, Urine; conditions: in vivo
[4] = Metabolic stability in Sprague-Dawley rat assessed as urinary excretion of unchanged drug level at 200 mg/kg, po after 0 to 36 hrs by HPLC; assay type: ADME, organism-based; conditions: urine, read-out: Activity
[5] = system: Rattus norvegicus; assay: Metabolic stability in Sprague-Dawley rat assessed as urinary excretion of trans-ferulic acid 4-O-sulfate level at 200 mg/kg, po after 0 to 8 hrs by HPLC; assay type: ADME, organism-based, Urine; conditions: in vivo
[6] = Metabolic stability in Sprague-Dawley rat assessed as urinary excretion of unchanged drug level at 200 mg/kg, po after 0 to 8 hrs by HPLC; assay type: ADME, organism-based; conditions: urine, read-out: Activity
[7] = system: Rattus norvegicus; assay: Metabolic stability in Sprague-Dawley rat assessed as urinary excretion of trans-caffeic acid level at 200 mg/kg, po after 0 to 48 hrs by HPLC; assay type: ADME, organism-based, Urine; conditions: in vivo
[8] = system: Rattus norvegicus; assay: Metabolic stability in Sprague-Dawley rat assessed as urinary excretion of m-hydroxyphenyl-propionic acid level at 200 mg/kg, po after 0 to 8 hrs by HPLC; assay type: ADME, organism-based, Urine; conditions: in vivo
[9] = system: Rattus norvegicus; assay: Metabolic stability in Sprague-Dawley rat assessed as urinary excretion of m-hydroxyphenyl-propionic acid level at 200 mg/kg, po after 0 to 36 hrs by HPLC; assay type: ADME, organism-based, Urine; conditions: in vivo
[10] = system: Rattus norvegicus; assay: Metabolic stability in Sprague-Dawley rat assessed as urinary excretion of trans-ferulic acid 4-O-sulfate level at 200 mg/kg, po after 0 to 12 hrs by HPLC; assay type: ADME, organism-based, Urine; conditions: in vivo
[11] = system: Rattus norvegicus; assay: Metabolic stability in Sprague-Dawley rat assessed as urinary excretion of trans-caffeic acid level at 200 mg/kg, po after 0 to 8 hrs by HPLC; assay type: ADME, organism-based, Urine; conditions: in vivo
[12] = system: Rattus norvegicus; assay: Metabolic stability in Sprague-Dawley rat assessed as urinary excretion of trans-caffeic acid level at 200 mg/kg, po after 0 to 72 hrs by HPLC; assay type: ADME, organism-based, Urine; conditions: in vivo
[13] = system: Rattus norvegicus; assay: Metabolic stability in Sprague-Dawley rat assessed as urinary excretion of m-hydroxyphenyl-propionic acid level at 200 mg/kg, po after 0 to 12 hrs by HPLC; assay type: ADME, organism-based, Urine; conditions: in vivo
[14] = system: Rattus norvegicus; assay: Metabolic stability in Sprague-Dawley rat assessed as urinary excretion of trans-caffeic acid 4-O-sulfate level at 200 mg/kg, po after 0 to 24 hrs by HPLC; assay type: ADME, organism-based, Urine; conditions: in vivo
[15] = system: Rattus norvegicus; assay: Metabolic stability in Sprague-Dawley rat assessed as urinary excretion of trans-ferulic acid 4-O-sulfate level at 200 mg/kg, po after 0 to 72 hrs by HPLC; assay type: ADME, organism-based, Urine; conditions: in vivo
[16] = system: Rattus norvegicus; assay: Metabolic stability in Sprague-Dawley rat assessed as urinary excretion of total metabolites at 200 mg/kg, po after 0 to 12 hrs by HPLC; assay type: ADME, organism-based, Urine; conditions: in vivo
[17] = system: Rattus norvegicus; assay: Metabolic stability in Sprague-Dawley rat assessed as urinary excretion of trans-caffeic acid 4-O-sulfate level at 200 mg/kg, po after 0 to 48 hrs by HPLC; assay type: ADME, organism-based, Urine; conditions: in vivo
[18] = system: Rattus norvegicus; assay: Metabolic stability in Sprague-Dawley rat assessed as urinary excretion of trans-caffeic acid level at 200 mg/kg, po after 0 to 36 hrs by HPLC; assay type: ADME, organism-based, Urine; conditions: in vivo
[19] = system: Rattus norvegicus; assay: Metabolic stability in Sprague-Dawley rat assessed as urinary excretion of m-hydroxyphenyl-propionic acid level at 200 mg/kg, po after 0 to 24 hrs by HPLC; assay type: ADME, organism-based, Urine; conditions: in vivo
[20] = Metabolic stability in Sprague-Dawley rat assessed as urinary excretion of unchanged drug level at 200 mg/kg, po after 0 to 4 hrs by HPLC; assay type: ADME, organism-based; conditions: urine, read-out: Activity
[21] = system: Rattus norvegicus; assay: Metabolic stability in Sprague-Dawley rat assessed as urinary excretion of trans-m-coumaric acid 3-O-sulfate level at 200 mg/kg, po after 0 to 48 hrs by HPLC; assay type: ADME, organism-based, Urine; conditions: in vivo
[22] = system: Rattus norvegicus; assay: Metabolic stability in Sprague-Dawley rat assessed as urinary excretion of trans-ferulic acid 4-O-sulfate level at 200 mg/kg, po after 0 to 48 hrs by HPLC; assay type: ADME, organism-based, Urine; conditions: in vivo
[23] = system: Rattus norvegicus; assay: Metabolic stability in Sprague-Dawley rat assessed as urinary excretion of trans-caffeic acid 4-O-sulfate level at 200 mg/kg, po after 0 to 4 hrs by HPLC; assay type: ADME, organism-based, Urine; conditions: in vivo
[24] = system: Rattus norvegicus; assay: Metabolic stability in Sprague-Dawley rat assessed as urinary excretion of trans-m-coumaric acid level at 200 mg/kg, po after 0 to 24 hrs by HPLC; assay type: ADME, organism-based, Urine; conditions: in vivo
[25] = system: Rattus norvegicus; assay: Metabolic stability in Sprague-Dawley rat assessed as urinary excretion of trans-caffeic acid level at 200 mg/kg, po after 0 to 4 hrs by HPLC; assay type: ADME, organism-based, Urine; conditions: in vivo
[26] = Metabolic stability in Sprague-Dawley rat assessed as urinary excretion of unchanged drug level at 200 mg/kg, po after 0 to 48 hrs by HPLC; assay type: ADME, organism-based; conditions: urine, read-out: Activity

Activity [1]: 0.1%
Activity [2]: 18.357%
Activity [3]: 30.483%
dose excreted [4]: 0.077%
Activity [5]: 0.284%
dose excreted [6]: 0.077%
Activity [7]: 0.117%
Activity [8]: 0.949%
Activity [9]: 17.43%
Activity [10]: 0.462%
Activity [11]: 0.027%
Activity [12]: 0.117%
Activity [13]: 5.252%
Activity [14]: 0.149%
Activity [15]: 0.581%
Activity [16]: 6.241%
Activity [17]: 0.154%
Activity [18]: 0.086%
Activity [19]: 14.527%
dose excreted [20]: 0.041%
Activity [21]: 12.137%
Activity [22]: 0.581%
Activity [23]: 0.038%
Activity [24]: 0.333%
Activity [25]: 0.01%
dose excreted [26]: 0.077%
Compound: O=C(/C=C/c1ccc(O)c(O)c1)O[C@H](Cc1ccc(O)c(O)c1)C(=O)O [ROSMARINIC ACID]
